Five compounds from patent US20100247659A1, “PHENYLPHTHALIMIDE ANALOGS FOR TREATING DIABETIC MACULAR EDEMA” (Charlesson, LLC, priority 2007, published 2010) can be followed below.

The subject of test [1] is HUVEC. The test is described as follows: MTT cell proliferation assay, HUVEC. The format is cell-based. Particulars: Homo sapiens, 72 h, treated 3 days, read-out: IC50, inhibition of proliferation of HUVEC. From the text: (§1) Cell culture: All cell culture media and supplements were purchased from Cellgro unless otherwise indicated. Human Umbilical Vein Endothelial Cells (HUVEC) were obtained from American Type Culture Collection and grown in the EBM-MV2 medium (Clonetics). Bovine Retinal Endothelial Cells (BREC) and pericytes were isolated according to a modified method as described previously (Wong, et al. Investig. Opthalmol. Vis. Sci. 1987, 28: 1767-1775). Twelve bovine eyes were obtained from a local slaughterhouse (Country Home Meats). The retinas were removed and washed four times in DMEM. Subsequently retinas were homogenized and centrifuged at 400×g for 10 min. The resultant pellet was resuspended in an isolation medium (DMEM with 100 IU/ml penicillin, 100 μg/ml streptomycin and 250 ng/ml amphotericin). Microvessels were trapped on an 85 μm nylon mesh (Locker Wire Weavers LTD) and transferred to a petri dish (Falcon) containing 10 ml of an enzyme cocktail which consisted of 600 μg/ml DNase I (Sigma), 165 μg/ml collagenase (Sigma) and 700 μg/ml Pronase E (EMD) and were incubated at 37° C. for 20 min. The resultant vessel fragments were trapped on a 53 μm nylon mesh (Locker Wire Weavers LTD), washed with the isolation medium and centrifuged at 400×g for 5 min. For selective culture of pericytes, the resultant pellet was resuspended in 10 ml of the pericyte growth medium and transferred into 75-cm^2 plastic tissue culture flasks (BD Biosciences). For selective culture of BRCECs, the resultant pellet was resuspended in 10 ml of the BRCEC growth medium and transferred into 75-cm^2 collagen-coated plastic tissue culture flasks (BD Biosciences). The BRCEC growth medium consisted of DMEM supplemented with 10% human serum, 1% glutamine, 1 mg/ml insulin, 550 μg/ml transferring, 670 ng/ml selenium, 100 IU/ml penicillin, 100 μg/ml streptomycin, 250 ng/ml amphotericin, 90 μg/ml heparin (Sigma) and 15 μg/ml endothelial cell growth supplement (Upstate). Cells were cultured at 37° C. and 5% CO2 with regular medium change every 3 days. Confluence cultures were passaged by detaching the cells with 0.25% trypsin and plated at a split 1:3. […] At passage 2, BRCECs and pericytes were stored in a liquid nitrogen tank for future use.
MTT assay: Cells were seeded at a density of 5×10^4 cells per well in 400 μl of growth medium in triplicate in 24-well plates (Nalge Nunc) or gelatin-coated 24-well plates. Twenty-four hours after seeding, the growth medium was replaced by a medium containing 1% FBS, with or without different concentrations of thalidomide or phenylphthalimide analogs. After the cells were treated for 48-72 h, MTT was added to a final concentration of 0.5 mg of medium per ml and incubated for 4 h at 37° C. in 5% CO2. An equal volume of solubilizer buffer is then added, following the protocol recommended by the manufacturer (Roche Molecular Biochemicals), the cells will be incubated overnight at 37° C. in 5% CO2. The absorbance of the formazen product was measured at a wavelength of 570 nm, with 750 nm as the (subtracted) reference wavelength.
Primary endothelial cells (HUVEC and BRCEC) and pericytes were treated with various concentrations of the compounds for 3 days. Viable cells were quantified using MTT assay and IC50 of each compound was calculated (mean±SD, n=3, FIG. 1). The IC50 values represent the means and SE of 3 independent experiments.

Test [2] concerns STZ-diabetic rats. The test is described as follows: Retinal vascular leakage in STZ-diabetic rats, intravitreal injection. The class given is in vivo, rat. The following applies: single intravitreal 1.0 μg/eye (5 μl 0.8 mM), 48 h.
Description: Induction of diabetes by streptozotocin (STZ): BN rats (8 weeks of age) were given a single intraperitoneal injection of fresh made streptozotocin (STZ) (Sigma, 50 mg/kg in 10 mM of citrate buffer, pH 4.5) following an overnight fasting. Control rats received an injection of citrate buffer alone. Blood glucose levels were checked at 24 hours following the last STZ injection and once a week thereafter, and only the animals with glucose levels higher than 350 mg/dl were considered diabetic. Rats with hyperglycemia for 2 weeks were used for these experiments.
Intravitreal injection of compounds: Thalidomide and the phenylphthalimide analogs Compounds 1, 2 and Compound 4 were dissolved in vehicle (BN rat serum) and sterilized by filtration. OIR and STZ-diabetic BN rats received an intravitreal injection of 0.5-2.0 μg/eye of (5 μl/eye, 0.1-0.4 mg/ml in BN rat serum) of thalidomide, Compounds 1, 2 or Compound 4 into the right eye and the equal volume of the BN rat serum into the left eye.
Evans blue dye (Sigma) was dissolved in 0.9% saline (30 mg/ml), sonicated for 5 min and filtered through a 0.45-μm filter (Millipore). The rats were then anesthetized, and Evans blue (30 mg/kg) was injected over 10 s through the femoral vein using a glass capillary under microscopic inspection. Evans blue non-covalently binds to plasma albumin in the blood stream. Immediately after Evans blue infusion, the rats turned visibly blue, confirming their uptake and distribution of the dye. The rats were kept on a warm pad for 2 h to ensure the complete circulation of the dye. Then the chest cavity was opened, and the rats were perfused via the left ventricle with 1% paraformaldehyde in citrate buffer (pH 4.2) which was pre-warmed to 37° C. to prevent vasoconstriction. The perfusion lasted 10 min under the physiological pressure of 120 mmHg, in order to clear the dye from the vessel. Immediately after perfusion, the eyes were enucleated and the retinas were carefully dissected under an operating microscope. Evans blue dye was extracted by incubating each sample in 150 μl of formamide for 18 h at 70° C. The extract was centrifuged (Beckman) at 70,000 rpm (Rotor type: TLA 100.3) for 20 min at 4° C. Absorbance was measured using 100 μl of the supernatant at 620 nm by using Spectrophotometer DU800 (Beckman). The concentration of Evans blue in the extract was calculated from a standard curve of Evans blue in formamide and normalized by the total protein concentration in each sample. Results were expressed in mg of Evans blue per mg of total protein content.
Diabetes was induced by injection of STZ (50 mg/kg, i.v.) into adult BN rats after overnight fasting. Blood glucose levels were monitored at the second day after the injection and once a week thereafter. Rats with glucose levels above 350 mg/dl were considered as diabetic and used for the study. thalidomide, Compounds 1, 2 and 4 were separately injected into the vitreous space (5 μl, 0.8 mM in BN rat serum) of the right eye of STZ-diabetic rats 2 wks after the induction of diabetes. At 48 h after the injection, retinal vascular leakage was measured using the Evans blue-albumin leakage method.
To determine the dose-response relationship of the effect of Compound 4 and thalidomide, the STZ-diabetic rats received an intravitreal injection of Compound 4 and thalidomide with doses of 0.5, 0.75 and 1.0 μg/eye (5 μl/eye of 0.10, 0.15 and 0.20 mg/ml), respectively.
For test [3], the system named is HUVEC. The test is described as follows: Endothelial cell migration (invasion) assay. The class given is cell-based. The following applies: Homo sapiens, VEGF 4 ng/ml, invasion through Matrigel, read-out: IC50, inhibition of HUVEC migration.
Description: Cells were allowed to invade for 22±1 hours. Cells were labeled post invasion with Calcein AM (4 μg/ml) and measured by detecting the fluorescence of cells that invaded through the BD Matrigel™ Matrix with an Applied Biosystems CytoFluor® 4000 plate reader at 485 nm excitation and 530 nm emission.
In this assay system, human endothelial cells are allowed to invade and are then labeled with fluorescent dye Calcein AM before quantification on a fluorometer.
In FIG. 2B, cells were seeded at 5×10^4/insert in EBM-2 containing 0.1% BSA in multi-well inserts. The assembled assays were allowed to proceed for 6 hours. The results are expressed as percent inhibition of migration as compared to control (no inhibitor). Data represents the average of 3 experiments, each run in triplicate. The bars represent mean±SD.
Test [4] relates to BRCEC. Put plainly: MTT cell proliferation assay, BRCEC. Particulars: Bos taurus, 72 h, treated 3 days, read-out: IC50, inhibition of proliferation of BRCEC. The format is cell-based, bovine.
Description: as §1
MTT assay: Cells were seeded at a density of 5×10^4 cells per well in 400 μl of growth medium in triplicate in 24-well plates (Nalge Nunc) or gelatin-coated 24-well plates. […] The absorbance of the formazen product was measured at a wavelength of 570 nm, with 750 nm as the (subtracted) reference wavelength.
Primary endothelial cells (HUVEC and BRCEC) and pericytes were treated with various concentrations of the compounds for 3 days. Viable cells were quantified using MTT assay and IC50 of each compound was calculated (mean±SD, n=3, FIG. 1). […]

The subject of test [5] is CAM blood vessel formation induced by VEGF/bFGF. The test is described as follows: Chicken chorioallantoic membrane (CAM) assay. The format is in vivo. The following applies: 200 ng VEGF-165/bFGF, 48 hr. The method, then: Chicken chorioallantoic membrane (CAM) assay: The fertile Leghorn chicken eggs were incubated in a humidified environment at 37.5° C. for 10 days. […] Anti-angiogenic compounds were then added 8 hr after the VEGF/bFGF at saturation to the same microbial testing disk, and the embryos were incubated for an additional 40 h. CAMs were then removed, quickly fixed with 4% paraformaldehyde in PBS, placed onto Petri dishes, and digitized images taken at 7.5× using a Nikon dissecting microscope and Scion Imaging system. A 1×1-cm grid was then added to the digital CAM images and the average number of vessels within 5-7 grids counted as a measure of vascularity.
CAM assay was used for in vivo anti-angiogenic studies. The fertile leghorn chicken eggs were allowed to incubate in a humidified environment at 37.5° C. for 10 days. […] Anti-angiogenic compounds were then added 8 hours after the VEGF/bFGF at saturation to the same microbial testing disk and embryos allowed to incubate for an additional 40 hours. After 48 hr, CAMs were removed, quickly fixed with 4% paraformaldehyde in PBS, placed onto Petri dishes, and digitized images taken at 7.5× using a Nikon dissecting microscope and Scion Imaging system. A 1×1-cm grid was then added to the digital CAM images and the average number of vessels within 5-7 grids counted as a measure of vascularity.
FIG. 14 is a table comparing the effect of Compound 4 on blood vessel formation. […] Data represent mean±SD of 8-16 samples from 2-3 separate experiments.

The structures appear in SMILES notation.

For the compound `Nc1cccc2c1C(=O)N(C1CCC(=O)NC1=O)C2=O` (stereo not drawn) [Actimid], in test [1], the IC50 was over 100 µM.

`CC(C)c1cccc(C(C)C)c1N1C(=O)c2ccc(O)cc2C1=O` [Compound 1]: the “reduction of retinal vascular leakage vs vehicle control” value in test [2] is 61%. Also, the IC50 in test [1] amounted to 3.3 µM; in test [3], 1 µM; in test [4], 1.94 µM.

As to `CC(C)c1cccc(C(C)C)c1N1C(=O)c2ccccc2C1=O` [Compound 2, (2,6-diisopropylphenyl)-1H-isoindole-1,3-dione], the IC50 in test [1] came to 3 µM; in test [4] it was 3.56 µM.

As for `Nc1cccc2c1CN(C1CCC(=O)NC1=O)C2=O` (stereo not drawn) [Revimid], the IC50 in test [1] is over 100 µM.

On to `Cc1cc(C)c(/C=C2\C(=O)Nc3ccccc32)[nH]1` [SU5416], for which the “ED50, dose reducing blood vessel number to 50% of VEGF/bFGF alone group” value in test [5] was determined as 7.8 μg/embryo.
